Assay results reported in patent US20050180971A1, “Cancer therapy” (priority 2002, published 2005).
Values joined by “and” are separate entries in the source; they are usually repeats but may differ in a detail not shown here. Equal entries are not always repeated.

System: AE 17 cells
Assay: Murine mesothelioma model: subcutaneous AE 17 tumor challenge, tumor area by callipers
Assay type: in vivo, C57/B16 mice
Text: Malignant mesothelioma in humans is an asbestos induced, incurable tumor that has a particularly poor prognosis. Average time from diagnosis to death being only eight months (Musk and Woodward, 1982). A murine model was developed by researchers in the Department of Medicine at the University of Western Australia to further the development of suitable interventions (Davies et al., 1992).
Day 0 was defined as the day of tumor cell inoculation with 1×10^6 AE 17 cells subcutaneously. The AE 17 tumor cell line was derived from C57/B16 mice and inoculated back into the same strain. This point will be referred to as a tumor challenge henceforth. Three groups of 5 mice were all challenged in this way. Subsequently the first of the groups was given a single ip dose of vinblastine (Vb) at 6 mg/kg body weight exactly 14 days post tumor challenge (Vb 19/11/01 group). The second group of 5 mice were similarly treated the next day; 15 days post tumor challenge (Vb 20/11/01). The third group received no Vb treatment (No treatment/control group).
Tumor measurements were taken from Day 14 onwards with callipers (2 diameters at right angles to each other in mm's). These two diameters are then multiplied together to give a mm^2 value that is known from past experience to correlate well with both tumor volume and tumor mass.

[1] = single ip Vb 6 mg/kg on day 14 post tumor challenge, measured day 14 (19-Nov)
[2] = single ip Vb 6 mg/kg on day 14 post tumor challenge, measured day 15 (20-Nov)
[3] = single ip Vb 6 mg/kg on day 14 post tumor challenge, measured day 18 (23-Nov)
[4] = single ip Vb 6 mg/kg on day 14 post tumor challenge, measured day 21 (26-Nov)
[5] = single ip Vb 6 mg/kg on day 14 post tumor challenge, measured day 24 (29-Nov)
[6] = single ip Vb 6 mg/kg on day 14 post tumor challenge, measured day 25 (30-Nov)
[7] = single ip Vb 6 mg/kg on day 14 post tumor challenge, measured day 28 (3-Dec)
[8] = single ip Vb 6 mg/kg on day 14 post tumor challenge, measured day 30 (5-Dec)
[9] = single ip Vb 6 mg/kg on day 15 post tumor challenge, measured day 14 (19-Nov), before treatment
[10] = single ip Vb 6 mg/kg on day 15 post tumor challenge, measured day 15 (20-Nov)
[11] = single ip Vb 6 mg/kg on day 15 post tumor challenge, measured day 18 (23-Nov)
[12] = single ip Vb 6 mg/kg on day 15 post tumor challenge, measured day 21 (26-Nov)
[13] = single ip Vb 6 mg/kg on day 15 post tumor challenge, measured day 24 (29-Nov)
[14] = single ip Vb 6 mg/kg on day 15 post tumor challenge, measured day 25 (30-Nov)
[15] = single ip Vb 6 mg/kg on day 15 post tumor challenge, measured day 28 (3-Dec)
[16] = single ip Vb 6 mg/kg on day 15 post tumor challenge, measured day 30 (5-Dec)

CC[C@]1(O)C[C@@H]2CN(CCc3c([nH]c4ccccc34)[C@@](C(=O)OC)(c3cc4c(cc3OC)N(C)[C@H]3[C@@](O)(C(=O)OC)[C@H](OC(C)=O)[C@]5(CC)C=CCN6CC[C@]43[C@@H]65)C2)C1 [Vb, vinblastine]
mice with significant tumor development (Vb treatment day 15 post challenge): 4/5 | protection from tumor development (single Vb treatment day 14 post challenge): heavily protected from tumor development | effectiveness (single Vb treatment day 14 post challenge, 5 mice): 80% | Tumor area (2 diameters multiplied), individual animal (single ip Vb 6 mg/kg on day 14 post tumor challenge, measured (7-Dec)): 0 mm^2 (4×) and 70 mm^2 | Tumor area (2 diameters multiplied), individual animal [1]: 4 mm^2 (4×) and 0.5 mm^2 | Tumor area, group mean [1]: 3.3 mm^2 | Tumor area (2 diameters multiplied), individual animal [2]: 0.5 mm^2 (3×) and 0 mm^2 (2×) | Tumor area, group mean [2]: 0.3 mm^2 | Tumor area (2 diameters multiplied), individual animal [3]: 0 mm^2 (2×) and 2 mm^2 and 1 mm^2 and 0.5 mm^2 | Tumor area, group mean [3]: 0.7 mm^2 | Tumor area (2 diameters multiplied), individual animal [4]: 0.5 mm^2 (2×) and 1 mm^2 and 0 mm^2 (2×) | Tumor area, group mean [4]: 0.4 mm^2 | Tumor area (2 diameters multiplied), individual animal [5]: 0 mm^2 (3×) and 6 mm^2 and 4 mm^2 | Tumor area, group mean [5]: 2 mm^2 | Tumor area (2 diameters multiplied), individual animal [6]: 0 mm^2 (3×) and 1 mm^2 and 0.5 mm^2 | Tumor area, group mean [6]: 0.3 mm^2 | Tumor area (2 diameters multiplied), individual animal [7]: 0 mm^2 (3×) and 0.5 mm^2 and 40 mm^2 | Tumor area, group mean [7]: 8.1 mm^2 | Tumor area (2 diameters multiplied), individual animal [8]: 0 mm^2 (4×) and 70 mm^2 | Tumor area, group mean [8]: 14 mm^2 | Tumor area, group mean (single ip Vb 6 mg/kg on day 14 post tumor challenge, measured day 32 (7-Dec)): 14 mm^2 | Tumor area (2 diameters multiplied), individual animal (single ip Vb 6 mg/kg on day 15 post tumor challenge, measured (7-Dec)): 81 mm^2 and 0.5 mm^2 and 90 mm^2 (2×) | Tumor area (2 diameters multiplied), individual animal [9]: 0.5 mm^2 (3×) and 4 mm^2 and 9 mm^2 | Tumor area, group mean [9]: 2.9 mm^2 | Tumor area (2 diameters multiplied), individual animal [10]: 1 mm^2 and 0.5 mm^2 (3×) and 0 mm^2 | Tumor area, group mean [10]: 0.5 mm^2 | Tumor area (2 diameters multiplied), individual animal [11]: 4 mm^2 and 0.5 mm^2 (2×) and 0 mm^2 (2×) | Tumor area, group mean [11]: 1 mm^2 | Tumor area (2 diameters multiplied), individual animal [12]: 9 mm^2 and 0.5 mm^2 (3×) and 8 mm^2 | Tumor area, group mean [12]: 3.7 mm^2 | Tumor area (2 diameters multiplied), individual animal [13]: 16 mm^2 and 0.5 mm^2 and 25 mm^2 and 12 mm^2 | Tumor area, group mean [13]: 13.4 mm^2 | Tumor area (2 diameters multiplied), individual animal [14]: 20 mm^2 and 0.5 mm^2 and 30 mm^2 and 25 mm^2 | Tumor area, group mean [14]: 18.9 mm^2 | Tumor area (2 diameters multiplied), individual animal [15]: 42 mm^2 and 0.5 mm^2 and 56 mm^2 and 90 mm^2 | Tumor area, group mean [15]: 47.1 mm^2 | Tumor area (2 diameters multiplied), individual animal [16]: 56 mm^2 and 0.5 mm^2 and 90 mm^2 (2×) | Tumor area, group mean [16]: 59.1 mm^2 | Tumor area, group mean (single ip Vb 6 mg/kg on day 15 post tumor challenge, measured day 32 (7-Dec)): 65.4 mm^2
